For eleven compounds, IC50 results are on record in US10287301B2 (Achillion Pharmaceuticals, Inc., priority 2015, dated 2019).

SMILES strings stand for the structures.

One assay deals with Human Factor D (Homo sapiens (Human), UniProt P00746). Briefly: Human Factor D Assay. The class given is biochemical.
Chain of Human Factor D (P00746 26-253): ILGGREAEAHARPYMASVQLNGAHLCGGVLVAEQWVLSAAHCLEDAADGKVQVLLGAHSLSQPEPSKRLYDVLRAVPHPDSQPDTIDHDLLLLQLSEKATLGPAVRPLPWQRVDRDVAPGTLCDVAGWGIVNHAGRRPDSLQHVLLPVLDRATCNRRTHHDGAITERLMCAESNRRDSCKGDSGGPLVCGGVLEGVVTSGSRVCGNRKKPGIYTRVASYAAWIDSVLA
Conditions: not given
The gist of the method:
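Factor D (from human serum) 80 nM final + cpd, 5 min RT, 50 mM Tris/1M NaCl pH 7.5; add Z-L-Lys-SBzl 100 μM and DTNB 100 μM final. IC50 by nonlinear fit of rates vs [cpd].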
Consider `CC(=O)c1cn(CC(=O)N2C[C@H](F)C[C@H]2C(=O)Nc2cc(O)ccn2)c2ccc(-c3ccnnc3)cc12` [Compound 177, (2S,4R)-1-(2-(3-acetyl-5-(pyridazin-4-yl)-1H-indol-1-yl)acetyl)-4-fluoro-N-(4-hydroxypyridin-2-yl)pyrrolidine-2-carboxamide], for which the IC50 (commonly the concentration that inhibits the measured activity by half) is 1 to 10 µM.

Take `NC(=O)c1nn(CC(=O)N2C[C@H](F)C[C@H]2C(=O)Nc2ncc(I)cn2)c2ccc(-c3ccnnc3)cc12` [Compound 179, 1-(2-((2S,4R)-4-fluoro-2-(5-iodopyrimidin-2-ylcarbamoyl)pyrrolidin-1-yl)-2-oxoethyl)-5-(pyridazin-4-yl)-1H-indazole-3-carboxamide]: the IC50 is 1 to 10 µM.

`NC(=O)c1nn(CC(=O)N2C[C@H](F)C[C@H]2C(=O)Nc2cccnc2Cl)c2ccc(-c3ccnnc3)cc12` [Compound 185, 1-(2-((2S,4R)-2-(2-chloropyridin-3-ylcarbamoyl)-4-fluoropyrrolidin-1-yl)-2-oxoethyl)-5-(pyridazin-4-yl)-1H-indazole-3-carboxamide] yielded an IC50 of 1 to 10 µM.

Still in this assay, the particulars now being: Human Factor D 80 nM, substrate Z-L-Lys-SBzl; read-out: IC50.
For `NC(=O)c1nn(CC(=O)N2C[C@H](F)C[C@H]2C(=O)Nc2cccc(O)n2)c2ccc(-c3ccnnc3)cc12` [Compound 174, 1-(2-((2S,4R)-4-fluoro-2-(6-hydroxypyridin-2-ylcarbamoyl)pyrrolidin-1-yl)-2-oxoethyl)-5-(pyridazin-4-yl)-1H-indazole-3-carboxamide], the IC50 is greater than 10 µM.

As to `CC(=O)c1cn(CC(=O)N2C[C@H](F)C[C@H]2C(=O)Nc2ccc(O)cn2)c2ccc(-c3ccnnc3)cc12` [Compound 175, (2S,4R)-1-(2-(3-acetyl-5-(pyridazin-4-yl)-1H-indol-1-yl)acetyl)-4-fluoro-N-(5-hydroxypyridin-2-yl)pyrrolidine-2-carboxamide], the IC50 was greater than 10 µM.

For the compound `NC(=O)c1nn(CC(=O)N2C[C@H](F)C[C@H]2C(=O)Nc2ccc(O)cn2)c2ccc(-c3ccnnc3)cc12` [Compound 176, 1-(2-((2S,4R)-4-fluoro-2-(5-hydroxypyridin-2-ylcarbamoyl)pyrrolidin-1-yl)-2-oxoethyl)-5-(pyridazin-4-yl)-1H-indazole-3-carboxamide], the IC50 is greater than 10 µM.

`NC(=O)c1nn(CC(=O)N2C[C@H](F)C[C@H]2C(=O)Nc2nccc(Cl)n2)c2ccc(-c3ccnnc3)cc12` [Compound 178, 1-(2-((2S,4R)-2-(4-chloropyrimidin-2-ylcarbamoyl)-4-fluoropyrrolidin-1-yl)-2-oxoethyl)-5-(pyridazin-4-yl)-1H-indazole-3-carboxamide]: the IC50 was greater than 10 µM.

Consider `CC(=O)c1cn(CC(=O)N2C[C@H](F)C[C@H]2C(=O)Nc2nccc(Cl)n2)c2ccc(-c3ccnnc3)cc12` [Compound 180, (2S,4R)-1-(2-(3-acetyl-5-(pyridazin-4-yl)-1H-indol-1-yl)acetyl)-N-(4-chloropyrimidin-2-yl)-4-fluoropyrrolidine-2-carboxamide], for which the IC50 was greater than 10 µM.

Take `CC(=O)c1cn(CC(=O)N2C[C@H](F)C[C@H]2C(=O)Nc2ccccc2-c2nncn2C)c2ccc(-c3ccnnc3)cc12` [Compound 181, (2S,4R)-1-(2-(3-acetyl-5-(pyridazin-4-yl)-1H-indol-1-yl)acetyl)-4-fluoro-N-(2-(4-methyl-4H-1,2,4-triazol-3-yl)phenyl) pyrrolidine-2-carboxamide]: the 50% inhibitory concentration (IC50) was greater than 10 µM.

As for `CC(=O)c1cn(CC(=O)N2C[C@H](F)C[C@H]2C(=O)Nc2noc(-c3ccccc3Cl)n2)c2ccc(-c3ccnnc3)cc12` [Compound 182, (2S,4R)-1-(2-(3-acetyl-5-(pyridazin-4-yl)-1H-indol-1-yl)acetyl)-N-(5-(2-chlorophenyl)-1,2,4-oxadiazol-3-yl)-4-fluoropyrrolidine-2-carboxamide], the IC50 was less than 1 µM.

On to `CC(=O)c1cn(CC(=O)N2C[C@H](F)C[C@H]2C(=O)Nc2cccc(-c3ccccc3Cl)c2F)c2ccc(-c3cnc(O)nc3)cc12` [Compound 186, (2S,4R)-1-(2-(3-acetyl-5-(2-hydroxypyrimidin-5-yl)-1H-indol-1-yl)acetyl)-N-(2′-chloro-2-fluorobiphenyl-3-yl)-4-fluoropyrrolidine-2-carboxamide], for which the concentration for half-maximal inhibition (IC50) is less than 1 µM.
